# Data reported in patent US20100279944A1, “SUPPRESSION AND TREATMENT OF NEUROPATHIC PAIN” (priority 2006, published 2010).
# Where a SMILES comes first, the peptide text is derived from it. [ ]: non-standard residue; d: D form.
# What was measured:
# [1] = Mathison et al., 1997; cited from earlier work
# [2] = Recovery, side effects and body weight of SCI rats after peptide treatment; assay type: in vivo, rat; conditions: 200 μg/kg i.v., six bolus doses after SCI
# Protocol: Seventeen individually housed male Wistar rats (Charles River, St. Constant, Quebec, 250-320 g) were used to assess mechanical allodynia and hind-limb locomotion. Males were used in these studies to avoid the confounding variable of hormonal cycles on the assessments of neuropathic pain. All protocols were carried out in accordance with the guidelines set forth by the Canadian Guide to Care and Use of Experimental Animals. All experiments conformed to international guidelines on the ethical use of animals and minimized the number of animals used and their suffering. All rats received pre-operative medication and halothane anesthesia for surgical interventions to accomplish clip compression spinal cord injury (SCI), as described previously (Gris et al., (2004), J. Neurosci., v. 24, pp. 4043-4051; Weaver et al., (2001), J. Neurotrauma, v. 18, pp. 1107-1119). A dorsal laminectomy was performed to expose the 12th thoracic (T12) spinal cord segment. The cord was injured by clip compression for 60 sec without disrupting the dura or adjacent dorsal roots. A modified aneurysm clip (Toronto Western Research Institute, University of Toronto, Toronto, Ontario, Canada) calibrated at 35 g was used at the T12 segment to produce a moderate injury. The rats received postoperative care as described previously (Gris, supra). […]
Compound,lowest dose showing biological effects [1],side effects of treatment [2]
SGP-T: submandibular gland peptide T; amino acid sequence TDIFEGG,1 μg/kg,–
"N[C@H](Cc1ccccc1)C(=O)N[C@H](CC(=O)O)C(=O)NCC(=O)O [fdG, D-phenylalanine-D-aspartic acid-Glycine] (H-[dF]-[dD]-Gly-OH)",–,No overt side effects
